{"source": "patent US20100189807A1", "about": "“Use of an ozone / oxygen mixture as a primary anticancer therapy via intraperitoneal insufflation” (priority 2009, published 2010)", "key": {"[1]": {"test": "Hematological and clinical chemistry blood parameters", "format": "in vivo, New Zealand White (NZW) rabbit", "experimental": "Arterial blood samples from the central auricular artery of the left tumor free ear were taken on day 14 post inoculation (directly before the first gas insufflation/sham treatment) and on day 19 post inoculation (24 h after the last gas insufflation/sham treatment). Additional blood samples were taken on day 90 from the O3/O2-rem animals (FIG. 1a). For hematological investigations we used an autoanalyzer (Vet abc™ Animal Blood Counter, ABX Diagnostics, Goettingen, Germany), that has been carefully adjusted and validated for the analysis of rabbit blood. For differential blood counts the RBC count was determined together with the hematocrit (HCT) and hemoglobin (HGB). […] Data were expressed as mean values±SEM. For clinical chemistry investigations creatinine, GOT, and GPT values were measured with the Reflovet® Plus system (Roche Diagnostics GmbH, Mannheim, Germany) to monitor for kidney and liver functions.\nFor comparison of survival rates of the three experimental groups the logrank test was performed considering p values<0.05 as significant. The survival probability of rabbits calculated from the time of tumor cell inoculation until day 90 was depicted according to the Kaplan-Meier method. […] Statistical differences in mean body weight between the experimental groups were evaluated at daily intervals with the unpaired Student's t test with two tail p values. […]"}, "VX2 auricular carcinoma": {"system": "VX2 auricular carcinoma", "test": "Therapy of auricular VX2 carcinoma in rabbits by intraperitoneal gas insufflation (survival, tumor clearance, lung metastases)", "format": "in vivo, New Zealand White (NZW) rabbit", "conditions": "n=14 (O3/O2), n=13 (O2)"}, "[2]": {"conditions": "inhaled ozone; cited from earlier work"}}}
{"smiles": "O=O", "note": "[O2]", "values": [{"measurement": "RBC", "setting": "[1]; d 14, directly before the first insufflation", "result": "5.68 10^6/mm^3"}, {"measurement": "RBC", "setting": "[1]; d 19, 24 h after the last insufflation", "result": "5.31 10^6/mm^3"}, {"measurement": "number of rabbits with remission of the tumor", "setting": "VX2 auricular carcinoma", "result": "two"}]}
{"smiles": "O=[O+][O-]", "note": "[ozone]", "values": [{"measurement": "grade of adverse effect (weight loss)", "setting": "[2]", "result": "grade II"}]}
